Source: US9045403B2 (Coyote Pharmaceuticals, Inc., priority 2012, dated 2015)
Several values for one entry are separate records, joined by “and”; a condition that tells them apart may be missing. Equal entries are not always repeated.

Experiments:
HSP70 = HSP70 induction in rat hippocampus with or without stereotactic kainic acid injection; assay type: in vivo
Protocol: Stereotactic injections of Kainic acid into rat hippocampus tissues led to increased damages in neurons. […] Under this condition, neurons and HSP70 expression was stained by immunohistochemistry techniques. HSP70 expression was induced in a very specific area only that KA was injected. The induced area was not stained by HSP70 antibody when KA was not injected, but CNS-102 was dosed.
HSP70 induction by dosing CNS-102 in the absence of the KA injection was limited in western blot experiments using hippocampus lysates. 120% or 130% of HSP70 expression could be seen by comparing those of vehicle dosing control experiments.

Neuro2A cells = Neuro2A cells that extended neurites, with GGTI-298 (Example 18); assay type: cell-based, mouse; settings: 0.1-1 μM, vehicle 0.0-0.20
From the text: After differentiation was induced, cells that extended neurites were counted.

[1] = test system: Sprague-Dawley rats injected with Kainic acid; assay: Kainic acid induced neurodegeneration and seizure in rats (Example 21); assay type: in vivo, rat; settings: oral
From the text: Seizure behaviors were observed and scored (Ref. R. J. Racine, Modification of seizure activity by electrical stimulation: II. Motor seizure, Electroencephalogr. Clin. Neurophysiol. 32 (1972) 281-294. Modifications were made for the methods). Brain tissues of rats were sectioned on histology slides, and neurons in hippocampus tissues were stained by Nissl. Neurons damaged by Kainic acid and behavior scores were quantified.

[2] = test system: Sprague Dawley rats, KA injected into the hippocampus; assay: Neuroprotection by CNS-102 in the presence of GGA cis-isomer in the kainic acid model; assay type: in vivo; settings: 24 mg/Kg rat oral; KA at 72 hours
Protocol: After dosing, KA was stereotactically injected into the hippocampus at 72 hours to induce neuron damage. After 24 h, hippocampus tissue was collected, stained, and imaged. The scans were analyzed by Image J to calculate the fraction of cells having KA-induced damage.

rats, kainic acid model = assay: Concentration dependence of neuroprotection in the kainic acid model; assay type: in vivo, rat; settings: one dose at 0, 1, 3, 6, 12 or 24 mg/kg; fraction of cells damaged
Protocol: The fraction of cells damaged in the kainic acid model was determined on 130 rats, each receiving one dose of CNS-102 at either 0, 1, 3, 6, 12 or 24 mg/kg. PBS was used for dosing at 0 mg/kg. The linear model of the log10 percent damage versus concentration is graphically shown FIG. 5.

CC(=O)CC/C=C(\C)CC/C=C(\C)CC/C=C(\C)CCC=C(C)C [CNS-102]
HSP70 induction (in words) (HSP70; KA stereotactically injected in hippocampus, localized in the injection site): a strong induction of HSP70 was seen very clearly
HSP70 expression compared with vehicle dosing control (HSP70; western blot of hippocampus lysates, absence of the KA injection): 120% and 130%
Mean of cell numbers (Arbitrary units) (Neuro2A cells): 0.45-0.65 Arbitrary units
Mean of Hippocampus CA3 neurons damaged (Arbitrary units) ([1]; 3 mg/Kg rat): 10.25 Arbitrary units
Mean of Hippocampus CA3 neurons damaged (Arbitrary units) ([1]; 12 mg/Kg rat): 10.16 Arbitrary units
Mean of Hippocampus CA3 neurons damaged (Arbitrary units) ([1]; 25 mg/Kg rat): 1.97 Arbitrary units
Mean of Hippocampus CA3 neurons damaged (Arbitrary units) [2]: 19.8182 Arbitrary units
minimal effective dose (rats, kainic acid model): 12 mg/kg
